According to US20230219912A1, “HALOGENATED BENZOTHIADIAZINES FOR THE TREATMENT OF CANCER” (BOARD OF REGENTS OF THE UNIVERSITY OF NEBRASKA, priority 2020, published 2023):
Entries after “also recorded” stand apart in the source; their conditions may differ.

What was measured:
[1] = system: MDA-MB-468 triple negative breast cancer cells; assay: MTS cytotoxicity assay in MDA-MB-468 triple negative breast cancer cells; assay type: cell-based; details: Homo sapiens, MDA-MB-468; 72 hours; mean ± SD n = 3
Method: The assay was performed as follows.
Derivatives were dosed at 10, 50 and 100 μM for 24, 48 and 72 hours and cell viability measured by MTS assay (FIG. 5).

[2] = system: human embryonic kidney (HEK293) cells; assay: MTS cytotoxicity assay in HEK293 cells; assay type: cell-based; details: 72 hours, mean ± SD n = 3
Method: The assay was performed as follows. To determine the cell growth inhibition ability of the synthesized compounds the (3-(4,5-dimethylthiazol-2-yl)-5-(3-carboxymethoxyphenyl)-2-(4-sulfophenyl)-2H-tetrazolium) (MTS) assay used according to the manufacturer's recommended protocol. Stock solutions of the synthesized compounds were prepared in DMSO. Cells were seeded at a density of 1×10^5 cells in 96-well plates. After 24 hours, cells were treated at the indicated concentrations of test compounds, limiting the final DMSO concentration to less than 1%. After incubation at 37° C. in an environment of 5% CO2 for 48-72 hours, 10 μL of MTS reagent (CellTiter 96© AQueous One Solution Reagent) was added to each well and incubated at the above mentioned conditions for 2-4 hr. Absorbance was recorded at 490 nm on a BioTek Synergy Mx multimode plate reader and the viability of cells were plotted as percentage of controls.
Cytotoxicity was also evaluated by using the low tumorigenic HEK293 cells at 50 μM concentration.

[3] = system: VEGF-induced proliferation of HUVEC cells; assay: VEGF-induced HUVEC proliferation, MTT assay; assay type: cell-based, human; details: VEGF 10 ng/mL
Method in brief: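 HUVECs starved 24 h in 0.1% BSA/0.1% FBS basal medium, then treated 48 h with VEGF (10 ng/mL) alone or with compounds at 20 μM (DMSO <1%). Proliferation by MTT (2 h, 37° C), formazan dissolved in acidified isopropanol, absorbance at 570 nm.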

[4] = system: phosphorylated vascular endothelial growth factor receptor-2 (VEGFR2); assay: Western blot of pVEGFR2 in VEGF-treated HUVEC cells; assay type: cell-based, human; details: 20 μM, VEGF 10 ng/mL, 5 min
Method: Cells were treated with test compounds (20 μM) along with VEGF (10 ng/mL) for 5 min. The DMSO was used as a negative control, whereas DMSO+VEGF was used as a positive control. Cells were lysed using RIPA buffer (10 mmol/L Tris-HCl, 1 mmol/L EDTA, 0.5 mmol/L EGTA, 1% Triton X-100, 0.1% sodium deoxycholate, 0.1% SDS and 140 mmol/L NaCl), supplemented with protease and phosphatase inhibitors (Halt Protease and Phosphatase Inhibitor). Cell lysates were centrifuged, and the supernatants were mixed with appropriate amount of 5×SDS loading buffer. Proteins were resolved on polyacrylamide gel and transferred onto nitrocellulose/PVDF membrane, blocked for 1 hour with 10% milk block prepared in 0.1% Tween 20 in 1×PBS (PBST), and treated with pVEGFR2 primary antibody at 4° C. overnight. The membrane was washed thrice with PBST, 5 minutes each, and treated with secondary antibody for 1 hour. The membrane was further washed three times, 5 minutes each, with PBST and developed using chemiluminescence, and the bands were analyzed using densitometry.

## O=S1(=O)N=C(NCc2ccc(OC(F)(F)F)cc2)Nc2cc(Cl)ccc21 [Compound 30b, 6-chloro-3-((4-(trifluoromethoxy)benzyl)amino)-4H-benzo[e][1,2,4]thiadiazine 1,1-dioxide]
[1]
  IC50: 48 µM
[2]
  IC50: 77.2 µM
[3]; 20 μM
  inhibition of VEGF-induced HUVEC proliferation (in words): suppressed HUVEC proliferation; also recorded: enhanced activity
[3]; Homo sapiens, HUVEC, 48 h, 20 μM compound, HUVEC, 48 h, relative to VEGF treated cells, mean ± SEM n = 3, read-out: % Inhibition of Proliferation
  inhibition at 20 µM: 196 ± 11%
[4]
  attenuation of pVEGFR2 expression: outperformed the parent compound; also recorded: most potent
